Columns and labels:
Assay in all cases: relative viability (nuclei count vs DMSO), 5 days (fraction); higher = more cells survive
[1] = compound: C1CCC(CC1)N(CCNCCC2=C3C(=C(C=C2)O)NC(=O)CO3)C(=O)CCNCCC4=CC(=C(C=C4)Cl)Cl [AZ505] + Cc1cc(Nc2cc(N3CCN(C)CC3)nc(Sc3ccc(NC(=O)C4CC4)cc3)n2)n[nH]1 [Tozasertib] (partner 0.1 µM)
Method in brief: (§1)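 The day after seeding in 1536-well plates, lung cancer cell lines were treated by pin tool with a single drug, or with a fixed anchor-drug dose together with five library-drug doses (not always all listed) in √10 steps. After 5 days, a combined fix-and-stain solution (final 0.05% Triton X-100, 1% formaldehyde, 1 ug/ml Hoechst) was added. Nuclei counted on 4× images gave relative viability as treated counts over vehicle counts, reported as the median of duplicate plates.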

[2] = compound: Cn1c(=O)n(-c2ccc(C(C)(C)C#N)cc2)c2c3cc(-c4cnc5ccccc5c4)ccc3ncc21 [Dactolisib] + CC1(C)CCC(c2ccc(Cl)cc2)=C(CN2CCN(c3ccc(C(=O)NS(=O)(=O)c4ccc(N[C@H](CCN5CCOCC5)CSc5ccccc5)c(S(=O)(=O)C(F)(F)F)c4)cc3)CC2)C1 [Navitoclax] (partner 0.5 µM)
Method in brief: as §1

[3] = compound: Cn1c(=O)n(-c2ccc(C(C)(C)C#N)cc2)c2c3cc(-c4cnc5ccccc5c4)ccc3ncc21 [Dactolisib] + C[C@]1(O)C[C@@H](c2nc(-c3ccc4ccc(-c5ccccc5)nc4c3)c3c(N)nccn32)C1 [Linsitinib] (partner 1 µM)
Method in brief: as §1

[4] = compound: Cn1c(=O)n(-c2ccc(C(C)(C)C#N)cc2)c2c3cc(-c4cnc5ccccc5c4)ccc3ncc21 [Dactolisib] + CC(=O)c1c(C)c2cnc(Nc3ccc(N4CCNCC4)cn3)nc2n(C2CCCC2)c1=O [Palbociclib] (partner 0.5 µM)
Method in brief: as §1

Cell Line | relative viability ([1]; first compound 0.08 µM) | relative viability ([1]; first compound 0.253 µM) | relative viability ([1]; first compound 0.8 µM) | relative viability ([1]; first compound 2.53 µM) | relative viability ([1]; first compound 8 µM) | relative viability ([2]; first compound 0.002 µM) | relative viability ([2]; first compound 0.006325 µM) | relative viability ([2]; first compound 0.02 µM) | relative viability ([2]; first compound 0.06325 µM) | relative viability ([2]; first compound 0.2 µM) | relative viability ([3]; first compound 0.002 µM) | relative viability ([3]; first compound 0.006325 µM) | relative viability ([3]; first compound 0.02 µM) | relative viability ([3]; first compound 0.06325 µM) | relative viability ([3]; first compound 0.2 µM) | relative viability ([4]; first compound 0.002 µM) | relative viability ([4]; first compound 0.006325 µM) | relative viability ([4]; first compound 0.02 µM) | relative viability ([4]; first compound 0.06325 µM) | relative viability ([4]; first compound 0.2 µM)
SK-LU-1 | 0.312 | 0.302 | 0.242 | 0.345 | 0.235 | 1.14 | 0.627 | 0.707 | 0.673 | 0.319 | 1.26 | 0.988 | 0.728 | 0.494 | 0.397 | 0.335 | 0.393 | 0.337 | 0.268 | 0.281
COR-L23 | 0.181 | 0.177 | 0.22 | 0.179 | 0.146 | 1.14 | 0.934 | 0.644 | 0.238 | 0.188 | 1.01 | 0.8 | 0.448 | 0.17 | 0.139 | 0.327 | 0.282 | 0.228 | 0.135 | 0.0957
NCI-H2087 | 0.223 | 0.181 | 0.244 | 0.241 | 0.245 | 0.986 | 0.907 | 1.02 | 0.481 | 0.429 | 1.02 | 0.955 | 0.919 | 0.555 | 0.429 | 0.275 | 0.232 | 0.221 | 0.172 | 0.142
LC-2-ad | 0.478 | 0.415 | 0.436 | 0.411 | 0.413 | 0.453 |  | 0.285 | 0.189 | 0.159 | 0.722 |  | 0.751 | 0.488 | 0.565 | 0.434 | 0.48 | 0.51 | 0.454 | 0.426
NCI-H1915 | 0.422 | 0.447 | 0.432 | 0.416 | 0.399 | 0.783 | 0.759 | 0.773 | 0.781 | 0.484 | 1.11 | 1.13 | 1.11 | 0.901 | 0.631 | 0.609 | 0.496 | 0.557 | 0.317 | 0.262
NCI-H1793 | 0.392 | 0.346 | 0.386 |  | 0.384 | 0.372 | 0.416 | 0.272 | 0.184 | 0.159 | 0.813 | 0.559 | 0.321 | 0.183 | 0.158 | 0.289 | 0.212 | 0.21 | 0.212 | 0.19
NCI-H2023 | 0.293 | 0.371 | 0.395 | 0.298 | 0.322 | 1.11 | 0.95 | 0.816 | 0.204 | 0.201 | 0.697 | 0.523 | 0.622 | 0.154 | 0.133 | 0.395 | 0.297 | 0.274 | 0.106 | 0.0901
COR-L 105 | 0.354 | 0.34 | 0.341 | 0.335 | 0.403 | 0.754 | 0.759 | 1.02 | 0.323 | 0.271 | 1.17 | 0.653 | 0.948 | 0.362 | 0.312 | 0.393 | 0.375 | 0.432 | 0.392 | 0.31
RERF-LC-KJ | 0.432 | 0.432 | 0.467 | 0.459 | 0.388 | 0.875 | 1.03 | 0.697 | 0.455 | 0.609 | 0.86 | 0.908 | 0.849 | 0.646 | 0.495 | 1.19 | 1.12 | 0.863 | 0.438 | 0.452
LXF-289 | 0.2 | 0.172 | 0.183 | 0.21 | 0.229 | 1.02 | 0.932 | 1 | 0.828 | 0.571 | 0.952 | 0.98 | 0.987 | 0.757 | 0.658 | 0.622 | 0.591 | 0.585 | 0.522 | 0.381
PC-14 | 0.549 | 0.594 | 0.586 | 0.509 | 0.554 | 1.09 | 1.06 | 1.06 | 0.329 | 0.432 | 1.04 | 1.02 | 0.945 | 0.644 | 0.407 | 0.654 | 0.487 | 0.446 | 0.0827 | 0.0725
NCI-H1666 | 0.629 | 0.613 | 0.534 | 0.525 | 0.584 | 1.3 | 0.673 | 0.927 | 0.667 | 0.31 | 0.939 | 0.865 | 0.776 | 0.506 | 0.42 | 0.628 | 0.624 | 0.673 | 0.622 | 0.579
NCI-H2085 | 0.663 | 0.786 | 0.823 | 0.825 | 0.891 | 1.17 | 1.01 | 0.89 | 0.584 | 0.367 | 1.03 | 0.714 | 0.636 | 0.361 | 0.381 | 0.491 | 0.446 | 0.382 | 0.373 | 0.308
NCI-H1734 | 0.259 | 0.276 | 0.243 | 0.219 | 0.215 | 0.839 | 0.647 | 0.743 | 0.275 | 0.234 | 1.02 | 0.755 | 0.72 | 0.336 | 0.318 | 0.344 | 0.356 | 0.314 | 0.228 | 0.201
NCI-H2126 | 0.816 | 0.809 | 0.821 | 0.806 | 0.892 | 0.896 | 0.77 | 0.762 | 0.564 | 0.399 | 0.807 | 0.662 | 0.674 | 0.521 | 0.422 | 0.369 | 0.359 | 0.33 | 0.352 | 0.316
